Experimental data taken from patent EP0913150A1, “Combination of actives, viz. salicyl alcohol and fumaric acid and/or maleic acid, for the treatment of seborrheoic skin diseases, especially psoriasis” (Phytexpert, Pharm-Tox-Consulting GmbH, priority 1997, dated 1999).
Converted amounts (≈) assume the structure as drawn. Like-named read-outs stand apart in the source and are kept apart here.

How the values were obtained:
[1] = test system: menschlichen Keratinozyten (HaCat); assay: Inhibition of cell proliferation, neutral red (NR) method; type: cell-based; conditions: Homo sapiens, read-out: NR-Methode *IC50
Text: (§1) Die Zellproliferation der Hautzellen wurde anhand der bekannten Neutralrotmethode untersucht. Die Zellschädigung wurde durch gleichzeitige Untersuchung der Freisetzung eines cytosolischen Enzyms, der Lactatdehydrogenase, zusätzlich bestimmt. In einigen Versuchen wurde auch die DNA-Synthese anhand der Inkorporation von ^3H-Thymidin mituntersucht.

[2] = Cytotoxicity, release of lactate dehydrogenase (LDH); type: cell-based, menschlichen; conditions: human
Text: as §1

[3] = test system: menschlichen Keratinozyten (HaCat); assay: DNA synthesis, 3H-thymidine incorporation; type: cell-based; conditions: Homo sapiens; HaCat keratinocytes; influence on DNA synthesis; read-out: ^3H-Thymidin-Einbau
Text: as §1

[4] = HaCat keratinocytes, 50% inhibition of cell growth

Compound	IC50 ([1]; HaCaT) [µg/mL]	CC50 ([2]; hacat keratinocytes) [µg/mL]	IC50 [1, 4] [µg/mL]	CC50 ([2]; HaCat keratinocytes, measure of cytotoxicity, as concentration of the active substance, read-out: LDH-Freisetzung*) [µg/mL]	IC50 [3] [µg/mL]
C[C@@H]1C[C@H]2[C@@H]3CCC4=CC(=O)C=C[C@]4(C)[C@@]3(F)[C@@H](O)C[C@]2(C)[C@@]1(O)C(=O)CO [Dexamethason]	800 (≈ 2.04 mM)	> 600			
O=C(O)/C=C\C(=O)O [Maleinsäure]		> 1000	1700 (≈ 14.6 mM)		
O=C(O)/C=C/C(=O)O [Na-Fumarat, Natriumfumarat]		> 10000	4900 (≈ 42.2 mM)		
O=C(O)c1ccccc1O [Na-Salicylat, Natriumsalicylat]	1500 (≈ 10.9 mM)			> 2000	
O=Cc1ccccc1O [Salicylaldehyd]		> 100	34 (≈ 0.278 mM)		
OCc1ccccc1O [Salicylalkohol, 2-Hydroxybenzylalkohol]		> 600	780 (≈ 6.28 mM)		300 (≈ 2.42 mM)
